In patent publication US10829520B2, “Beta-hairpin peptidomimetics” (POLYPHOR AG, priority 2015, dated 2020):
Where a SMILES comes first, the peptide text is derived from it. Bridges are numbered along the chain shown (N, C = ends). [ ]: non-standard residue; d: D form. The star is where a group is joined. NαAmidinoTrp = N=C(N)N[C@@H](Cc1c[nH]c2ccccc12)C(=O)*; Tle = CC(C)(C)[C@H](N)C(=O)O; dDab = NCC[C@@H](N)C(=O)O; Nle = CCCC[C@H](N)C(=O)O; Orn = NCCC[C@H](N)C(=O)O; Dab = NCC[C@H](N)C(=O)O; Dap = NC[C@H](N)C(=O)O

Tests used:
Assay type in all cases: cell-based
[1] = test system: human red blood cells (hRBC); assay: Hemolysis of human red blood cells; settings: red cells of human, 1 h
Summary of the method: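 Fresh human red blood cells are washed in PBS, then shaken with peptide (100 μg/mL) at 37° C. for 1 h, final erythrocyte density about 0.9×10^9 cells/mL. After centrifugation, diluted supernatants are read at 540 nm against buffer (0%) and Triton X-100 (100%) lysis controls.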

[2] = test system: Pseudomonas aeruginosa ATCC 27853; settings: ATCC 27853
Summary of the method: (§1)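 Antibacterial activity is measured as MIC (μg/mL) by standard CLSI microdilution. Inocula of about 10^6 CFU/mL in MH-II broth meet two-fold peptide dilutions in medium with 0.002% Polysorbate 80, and growth is scored visually after 18-20 hours at 35° C.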

[3] = test system: Klebsiella pneumoniae SSI #3010; settings: SSI #3010
Summary of the method: as §1

[4] = test system: Escherichia coli ATCC 25922; settings: ATCC 25922
Summary of the method: as §1

[5] = test system: Acinetobacter baumannii 872842; settings: 872842
[6] = test system: Acinetobacter baumannii DSM 30008; settings: DSM 30008
Summary of the method: as §1

[7] = test system: Klebsiella pneumoniae 968733; settings: 968733
Escherichia coli 926415 = settings: 926415

Structure (SMILES)	Hemolysis at 100 μg/mL ([1]; 100 μg/mL)	Pseudomonas aeruginosa ATCC 27853 MIC [2]	Klebsiella pneumoniae SSI #3010 MIC [3]	Escherichia coli ATCC 25922 MIC [4]	Acinetobacter baumannii 872842 MIC [5]	Acinetobacter baumannii DSM 30008 MIC [6]	Klebsiella pneumoniae 968733 MIC [7]	Escherichia coli 926415 MIC (Escherichia coli 926415)	Hemolysis at 100 μg/mL [1]; 100
CC(=O)N[C@@H](Cc1c[nH]c2ccccc12)C(=O)N[C@H]1CSSC[C@@H](C(=O)N[C@@H](CCCN)C(=O)N[C@H](CCN)C(=O)N[C@@H](CCN)C(=O)N[C@@H](CCN)C(=O)N[C@H]2CCNC(=O)[C@H]([C@@H](C)O)NC(=O)[C@H](CCN)NC(=O)[C@H](CCN)NC(=O)[C@H](CC(C)C)NC(=O)[C@@H](Cc3ccccc3)NC(=O)[C@H](CCN)NC2=O)NC(=O)[C@H](Cc2ccc(O)cc2)NC(=O)[C@H](CN)NC(=O)[C@H](Cc2ccccc2)NC(=O)[C@H](Cc2ccccc2)NC(=O)[C@H]2CCCN2C(=O)[C@H](CO)NC(=O)[C@H](C)NC(=O)[C@H](C(C)(C)C)NC1=O [Ex. 137] (Ac-WC[Tle]AS[dP]FF[Dap]YC[Orn][dDab][Dab][Dab][Dab][Dab][dF]L[Dab][Dab]T; disulfide 2-11; lactam 16-C)	4%	1 µg/mL	0.5 µg/mL	0.25 µg/mL	0.5 µg/mL	0.5 µg/mL	0.5 µg/mL	0.5 µg/mL	–
CCCC[C@@H]1NC(=O)[C@@H]2CCCN2C(=O)[C@H]2CCCN2C(=O)[C@H](CO)NC(=O)[C@H](C)NC(=O)[C@H](C(C)(C)C)NC(=O)[C@H](CCN)NC(=O)[C@H](Cc2c[nH]c3ccccc23)NC(=O)[C@@H](NC(C)=O)CCNC(=O)CC[C@@H](C(=O)N[C@H](CCN)C(=O)N[C@H]2CCNC(=O)[C@H]([C@@H](C)O)NC(=O)[C@H](CCN)NC(=O)[C@H](CCN)NC(=O)[C@H](CC(C)C)NC(=O)[C@@H](Cc3ccccc3)NC(=O)[C@H](CCN)NC2=O)NC(=O)[C@H](CCCN)NC(=O)[C@H](CCN)NC(=O)[C@H](Cc2ccc(O)cc2)NC(=O)[C@H](CO)NC1=O [Ex. 197] (Ac-[Dab]W[Dab][Tle]AS[dP]P[Nle]SY[Dab][Orn]E[dDab][Dab][Dab][dF]L[Dab][Dab]T; lactam 1-14, 16-C)	–	2 µg/mL	0.25 µg/mL	0.0625 µg/mL	4 µg/mL	0.5 µg/mL	2 µg/mL	0.25 µg/mL	2%
CC(C)C[C@@H]1NC(=O)[C@@H](CC(C)C)NC(=O)[C@H](CCN)NC(=O)[C@@H](NC(=O)[C@H](CCN)NC(=O)[C@H](CCN)NC(=O)[C@H](CCN)NC(=O)CNC(=O)[C@H](CCN)NC(=O)[C@H](Cc2ccc(O)cc2)NC(=O)[C@@H]2CCNC(=O)C[C@H](NC(=O)[C@@H](NC(=O)[C@H](CCN)NC(=O)[C@H](Cc3c[nH]c4ccccc34)NC(=N)N)C(C)C)C(=O)N[C@@H](Cc3ccc(O)cc3)C(=O)N3CCC[C@@H]3C(=O)N3CCC[C@H]3C(=O)N[C@@H](C(C)C)C(=O)N2)CCNC(=O)[C@H]([C@@H](C)O)NC(=O)[C@H](CCN)NC(=O)[C@H](CCN)NC1=O [Ex. 172] (NαAmidinoTrp-[Dab]VDY[dP]PV[Dab]Y[Dab]G[Dab][Dab][Dab][Dab][Dab][dL]L[Dab][Dab]T; lactam 3-8, 15-C)	–	0.125 µg/mL	0.125 µg/mL	0.0625 µg/mL	0.25 µg/mL	0.0625 µg/mL	0.5 µg/mL	0.5 µg/mL	1%
